Test systems include SK-MEL-28; NCI-H226; OVCAR-8; COLO 205; MCF7; CCRF-CEM; Malme-3M; BT-549; SK-MEL-2; NCI-H522; M14; MDA-MB-231; UACC-257; A498; MOLT-4; 786-0; EKVX; CAKI-1; PC-3.
What all share (test): inhibition of tumour cell growth, NCI panel, 48 h

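All cell lines were grown in 96-well plates and treated with compound for 48 hours. GI50 is the concentration that inhibits growth by half.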 Calls of active or inactive are those of the source. No stated cut-off is given here; in the data, active = GI50 up to about 1.1 µM and inactive = higher.

In the case of `Cc1cccc(CNc2[nH]cnc3nncc2-3)c1`, the GI50 was > 100 µM (inactive) with SK-MEL-28; 49.5 µM (inactive) with NCI-H226; 49.1 µM (inactive) in the experiment with OVCAR-8; 95.9 µM (inactive) in the experiment on COLO 205; > 100 µM (inactive) with MCF7; > 100 µM (inactive) in the experiment on CCRF-CEM. The GI50 in the experiment on Malme-3M is > 100 µM (inactive); in the experiment with BT-549, > 100 µM (inactive); with SK-MEL-2, > 100 µM (inactive); in the experiment on NCI-H522 it was 56.5 µM (inactive); with M14, > 100 µM (inactive); with MDA-MB-231, > 100 µM (inactive). The GI50 in the experiment with UACC-257 was 76.6 µM (inactive); in the experiment with A498, 40.6 µM (inactive); with MOLT-4, 58.2 µM (inactive); in the experiment on 786-0, > 100 µM (inactive); with EKVX, 37.2 µM (inactive); in the experiment with CAKI-1 it was 80.7 µM (inactive). The GI50 in the experiment on PC-3 is > 100 µM (inactive).
Consider `CSc1nc(Br)nc2ncn(C3CC(Oc4ccc(C)cc4)C(COc4ccc(C)cc4)O3)c12` (centres undefined), for which the GI50 was > 100 µM (inactive) with SK-MEL-28; > 100 µM (inactive) with NCI-H226; 80.7 µM (inactive) in the experiment on OVCAR-8; > 100 µM (inactive) with COLO 205; > 100 µM (inactive) in the experiment on MCF7; > 100 µM (inactive) with CCRF-CEM. Besides, the GI50 in the experiment on Malme-3M, in the experiment on BT-549, in the experiment with SK-MEL-2, in the experiment with NCI-H522, in the experiment on M14 and in the experiment with MDA-MB-231 was > 100 µM (inactive) each time. Moreover, the GI50 in the experiment on UACC-257 is > 100 µM (inactive); in the experiment on A498, > 100 µM (inactive); with MOLT-4, > 100 µM (inactive); with 786-0, > 100 µM (inactive); with EKVX, > 100 µM (inactive); with CAKI-1, 66.2 µM (inactive). Further, in the experiment with PC-3, the GI50 is > 100 µM (inactive).
For the compound `O=[N+]([O-])c1ccc(NC(=S)N/N=C(\c2ccccc2)c2ccccn2)cc1`, the GI50 is 1.22 µM (inactive) in the experiment on SK-MEL-28; 1.47 µM (inactive) in the experiment with NCI-H226; 0.037 µM (active) in the experiment with OVCAR-8; 0.312 µM (active) in the experiment on COLO 205; 1.43 µM (inactive) in the experiment with MCF7; < 0.0184 µM (active) with CCRF-CEM. Further, the GI50 was 1.65 µM (inactive) in the experiment on Malme-3M; 1.63 µM (inactive) in the experiment on BT-549; 1.76 µM (inactive) with SK-MEL-2; 0.12 µM (active) in the experiment with NCI-H522; 1.02 µM (active) in the experiment with M14; < 0.01 µM (active) in the experiment on MDA-MB-231. The GI50 in the experiment with UACC-257 is 1.6 µM (inactive); with A498, 1.75 µM (inactive); in the experiment with MOLT-4 it was < 0.0314 µM (active); with 786-0, 1.25 µM (inactive); in the experiment on EKVX, 0.231 µM (active); in the experiment with CAKI-1, 1.6 µM (inactive). Moreover, the GI50 in the experiment with PC-3 was 0.229 µM (active).
For `O=CC1OC(=O)c2cc(O)c(O)c(O)c2-c2c(cc(O)c(O)c2O)C(=O)OC1C(O)C(O)CO` (centres undefined), the GI50 in the experiment with SK-MEL-28 was 83.4 µM (inactive); in the experiment on NCI-H226, > 100 µM (inactive); with OVCAR-8, 19.8 µM (inactive); in the experiment on COLO 205, 45.5 µM (inactive); with MCF7 it was 19.1 µM (inactive); in the experiment with CCRF-CEM it was 38.8 µM (inactive). Moreover, the GI50 with Malme-3M was > 100 µM (inactive); with BT-549, 51.4 µM (inactive); with SK-MEL-2 it was 15.4 µM (inactive); with NCI-H522, 31 µM (inactive); in the experiment on M14 it was 35 µM (inactive); in the experiment on MDA-MB-231, 17.1 µM (inactive). The GI50 in the experiment on UACC-257 is 82 µM (inactive); with A498 it was > 100 µM (inactive); with MOLT-4 it was 22.9 µM (inactive); in the experiment with 786-0 it was > 100 µM (inactive); in the experiment with EKVX it was > 100 µM (inactive); in the experiment on CAKI-1, 19.1 µM (inactive). Also, the GI50 in the experiment with PC-3 is 16.2 µM (inactive).
On to `C=CC(O)(CBr)CCC(Br)C(=C)C` (centres undefined), for which the GI50 in the experiment with SK-MEL-28, with NCI-H226, in the experiment with OVCAR-8, with COLO 205, in the experiment with MCF7 and in the experiment with CCRF-CEM was > 10 µM (inactive) throughout. Further, the GI50 in the experiment on Malme-3M, in the experiment with BT-549, in the experiment with SK-MEL-2, in the experiment with NCI-H522, in the experiment with M14 and with MDA-MB-231 was > 10 µM (inactive) throughout. Besides, the GI50 in the experiment with UACC-257, in the experiment with A498, in the experiment with MOLT-4, in the experiment on 786-0, with EKVX and in the experiment on CAKI-1 was > 10 µM (inactive) each time. Also, the GI50 in the experiment on PC-3 was > 10 µM (inactive).
In the case of `Cc1cc(S(=O)(=O)/N=C(\NN)NCC(=O)NN)c(S)cc1Cl`, the GI50 in the experiment with SK-MEL-28, with NCI-H226, in the experiment on OVCAR-8, in the experiment on COLO 205, with MCF7 and in the experiment with CCRF-CEM was > 10 µM (inactive) throughout. The GI50 with Malme-3M, in the experiment on BT-549, in the experiment on SK-MEL-2, in the experiment on NCI-H522, in the experiment on M14 and in the experiment on MDA-MB-231 was > 10 µM (inactive) throughout. For the same compound, the GI50 with UACC-257, in the experiment with A498, in the experiment on MOLT-4, with 786-0, in the experiment on EKVX and in the experiment on CAKI-1 was > 10 µM (inactive) in each case. In the experiment on PC-3, the GI50 is > 10 µM (inactive).
Take `Cc1cnoc1/N=C1\C=C(O)C(=O)c2ccccc21`: the GI50 with SK-MEL-28 was 29.9 µM (inactive); with NCI-H226, 35.3 µM (inactive); in the experiment on OVCAR-8, 25.8 µM (inactive); in the experiment with COLO 205, 35.9 µM (inactive); in the experiment on MCF7, 4.26 µM (inactive); in the experiment on CCRF-CEM, 16.1 µM (inactive). Besides, the GI50 is 3.02 µM (inactive) in the experiment with Malme-3M; 4.9 µM (inactive) in the experiment on BT-549; 2.82 µM (inactive) in the experiment with SK-MEL-2; 34.5 µM (inactive) in the experiment with NCI-H522; 12.5 µM (inactive) in the experiment on M14; 25.6 µM (inactive) in the experiment on MDA-MB-231. Besides, the GI50 was 16.3 µM (inactive) with UACC-257; 29 µM (inactive) with A498; 17.4 µM (inactive) in the experiment with MOLT-4; 53.2 µM (inactive) with 786-0; 29.5 µM (inactive) in the experiment on EKVX; 28.6 µM (inactive) in the experiment with CAKI-1. Further, the GI50 in the experiment on PC-3 was 25.4 µM (inactive).
Take `N#CC1(C#N)NC(c2cccs2)C(C#N)(C#N)NC1c1cccs1` (centres undefined): the GI50 with SK-MEL-28 is 29.6 µM (inactive); in the experiment on NCI-H226, 53.1 µM (inactive); with OVCAR-8 it was 54.7 µM (inactive); in the experiment on COLO 205, 47.9 µM (inactive); in the experiment with MCF7 it was 12.2 µM (inactive); with CCRF-CEM, 22.2 µM (inactive). In addition, the GI50 is 41.9 µM (inactive) with Malme-3M; 21.2 µM (inactive) in the experiment with BT-549; 14.2 µM (inactive) in the experiment with SK-MEL-2; 23.1 µM (inactive) in the experiment with NCI-H522; 31.3 µM (inactive) in the experiment with M14; 80.9 µM (inactive) in the experiment on MDA-MB-231. The GI50 with UACC-257 is > 100 µM (inactive); with A498 it was 20.5 µM (inactive); in the experiment with MOLT-4 it was 23.3 µM (inactive); with 786-0 it was 39.9 µM (inactive); with EKVX, 55.8 µM (inactive); in the experiment on CAKI-1, 58.6 µM (inactive). For the same compound, the GI50 in the experiment with PC-3 was 27.4 µM (inactive).
On to `COc1cc(OC)c2c(c1)OC(c1cccnc1)C(c1ccccc1)C2=O` (centres undefined), for which the GI50 in the experiment on SK-MEL-28 was > 100 µM (inactive); in the experiment with NCI-H226 it was > 100 µM (inactive); with OVCAR-8 it was 59.3 µM (inactive); in the experiment with COLO 205, > 100 µM (inactive); with MCF7 it was > 100 µM (inactive); in the experiment on CCRF-CEM it was > 100 µM (inactive). For the same compound, the GI50 was > 100 µM (inactive) in the experiment with Malme-3M; > 100 µM (inactive) in the experiment with BT-549; 34.4 µM (inactive) in the experiment on SK-MEL-2; 72.1 µM (inactive) in the experiment with NCI-H522; > 100 µM (inactive) in the experiment with M14; > 100 µM (inactive) with MDA-MB-231. Moreover, the GI50 in the experiment on UACC-257 was > 100 µM (inactive); in the experiment on A498, > 100 µM (inactive); in the experiment with MOLT-4 it was > 100 µM (inactive); in the experiment with 786-0, > 100 µM (inactive); in the experiment on EKVX, > 100 µM (inactive); with CAKI-1, 74.8 µM (inactive). The GI50 in the experiment with PC-3 is 93.3 µM (inactive).
With `O=c1oc2cc(O)ccc2cc1-c1nc2ccccc2o1`, the GI50 with SK-MEL-28 is 43.5 µM (inactive); in the experiment with NCI-H226, 61.5 µM (inactive); in the experiment on OVCAR-8 it was 34.8 µM (inactive); with COLO 205 it was 30.8 µM (inactive); in the experiment with MCF7, 32.8 µM (inactive); in the experiment with CCRF-CEM it was 8.87 µM (inactive). Further, the GI50 in the experiment on Malme-3M is 39.5 µM (inactive); in the experiment with BT-549, 15.5 µM (inactive); with SK-MEL-2, 21.9 µM (inactive); with NCI-H522, 17.1 µM (inactive); in the experiment on M14 it was 36.3 µM (inactive); in the experiment on MDA-MB-231, 35.6 µM (inactive). Moreover, the GI50 was 43.4 µM (inactive) in the experiment with UACC-257; 29.2 µM (inactive) in the experiment with A498; 24.7 µM (inactive) in the experiment on MOLT-4; 30.5 µM (inactive) in the experiment on 786-0; 28.5 µM (inactive) with EKVX; 44 µM (inactive) with CAKI-1. Besides, the GI50 in the experiment with PC-3 was 42.4 µM (inactive).
With `CCc1c(Cc2cc(C)cc(C)c2)n2c(nc1=O)SCC2CBr` (centres undefined), the GI50 was > 50 µM (inactive) in the experiment with SK-MEL-28; > 50 µM (inactive) with NCI-H226; 10.4 µM (inactive) in the experiment with OVCAR-8; > 50 µM (inactive) in the experiment on COLO 205; 29.4 µM (inactive) in the experiment on MCF7; 12.6 µM (inactive) in the experiment on CCRF-CEM. The GI50 in the experiment with Malme-3M was 12.9 µM (inactive); in the experiment with BT-549 it was > 50 µM (inactive); in the experiment with SK-MEL-2, 44.4 µM (inactive); in the experiment on NCI-H522, 27.4 µM (inactive); in the experiment with M14, > 50 µM (inactive); with MDA-MB-231 it was 19.6 µM (inactive). Besides, the GI50 is > 50 µM (inactive) with UACC-257; 28.7 µM (inactive) with A498; 34 µM (inactive) in the experiment with MOLT-4; > 50 µM (inactive) in the experiment with 786-0; 27 µM (inactive) in the experiment on EKVX; > 50 µM (inactive) in the experiment with CAKI-1. The GI50 with PC-3 was > 50 µM (inactive).

The record behind these values is ChEMBL document CHEMBL1201862, “PubChem BioAssay data set” (2004).
